Results on 13 compounds are retold here after PubChem BioAssay (NCI).

What all share (assay): growth of human tumour cells (NCI), 48 h
For test [1], the system named is UACC-62 melanoma.
The subject of test [2] is K-562 leukemia.
Test [3] has as its system COLO 205 colon.
For test [4], the system named is HCT-15 colon.
Test [5] concerns SNB-19 CNS.
The subject of test [6] is SK-MEL-28 melanoma.
Test [7] has as its system OVCAR-5 ovarian.
The test system of test [8] is OVCAR-3 ovarian.
Test [9] deals with KM12 colon.
The subject of test [10] is SR leukemia.

Molecules are shown by their SMILES.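 96-well plates; 48 h exposure; 5 concentrations. Endpoints by linear interpolation between flanking doses. Not reached: highest tested concentration assigned. Abbreviation: GI50, concentration required for 50% inhibition of growth. TGI marks complete inhibition of growth.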

Take `Cn1nc(-c2ccccc2)c(C(=O)/C=C/c2ccccc2)c(N2CCOCC2)c1=O`: the TGI in [1] amounted to 52.9 µM; in [2] it was 56 µM; in test [3], 35.9 µM; in [4] it was 57 µM.
With `CCOC(=O)C(=O)Nc1c(C)cccc1C`, the TGI in [5], in test [6], in test [7], in [8], in test [1] and in [3] was greater than 100 µM each time. The TGI in test [9] and in [4] was greater than 100 µM throughout.
On to `Clc1nc(Cl)c2ncn(Cc3ccc(COc4cccc(OCc5ccc(Cn6cnc7c(Cl)nc(Cl)nc76)cc5)c4)cc3)c2n1`, for which the GI50 in test [5] was greater than 100 µM; in test [6], 52.8 µM; in [7] it was 49.8 µM; in [8], 10.7 µM; in test [1] it was 34.7 µM; in test [2], 25.9 µM. In addition, the GI50 in test [3] is greater than 100 µM; in test [9], 58.2 µM; in test [4], 28.8 µM. For the same compound, the TGI in [5] is greater than 100 µM; in test [6] it was greater than 100 µM; in test [7], greater than 100 µM; in test [8] it was 56.6 µM; in test [1], greater than 100 µM; in test [2], greater than 100 µM. The TGI in test [3], in [9] and in test [4] was greater than 100 µM throughout.
With `COc1nc2nccc-2c2occn12`, the TGI in test [5], in test [6], in test [7], in [8], in test [1] and in [2] was greater than 100 µM each time. In addition, the TGI in test [3], in test [9] and in test [4] was greater than 100 µM each time.
In the case of `CCCCCCCCCCCCCC(=O)CBr`, the TGI was found to be 33.7 µM in test [5]; 30.7 µM in test [6]; 49.8 µM in test [7]; 39.9 µM in test [8]; 17.9 µM in test [1]; 17.4 µM in test [2]. In addition, the TGI in test [3] worked out at 30.1 µM; in test [9], 16.9 µM; in test [4], 28.3 µM.
For the compound `O=C(CSC(=S)N1CCOCC1)Nc1nc2c(s1)CCCC2`, the TGI in test [6], in test [10], in test [7], in test [8], in [3] and in [9] was greater than 100 µM in each case. The compound also displayed a TGI in test [4] greater than 100 µM.
Regarding `C[C@@H]1COCCN1c1cc(C2(S(C)(=N)=O)CC2)nc(-c2ccnc3[nH]ccc23)n1` (stereo partly drawn), the GI50 was 3.92 µM in test [5]; 5.59 µM in test [6]; 3.3 µM in test [7]; 5.76 µM in [8]; 2.01 µM in [1]; 3.22 µM in test [2]. Further, the results for the GI50 in test [3], in test [9] and in test [4] were 11.7 µM, 5.72 µM and 3.98 µM, respectively. Besides, the TGI is 42.2 µM in test [5]; 25.8 µM in test [6]; 16.7 µM in [7]; 38.9 µM in [8]; 11 µM in test [1]; greater than 100 µM in test [2]. Further, the TGI in [3] was 29 µM; in test [9], 63.1 µM; in test [4], greater than 100 µM.
Take `CC(=O)c1cc([N+](=O)[O-])ccc1OCC(=O)O`: the TGI in [5], in test [6], in test [7], in test [8], in test [1] and in [2] was greater than 100 µM each time. For the same compound, the TGI in test [3], in [9] and in test [4] was greater than 100 µM in each case.
For `COc1cc(/C=C/C(=O)c2sc(Nc3ccccc3)nc2C)ccc1O`, the TGI in test [5], in test [6], in test [7], in [8], in [1] and in test [2] was greater than 100 µM each time. The TGI in test [3], in test [9] and in test [4] was greater than 100 µM each time.
For `CCCCCCCCCCCC[n+]1ccc(CCCCCCCCC)cc1`, the figures for the GI50 in test [6], in [10] and in test [1] were 1.31 µM, 1.47 µM and 0.465 µM, respectively. In addition, the TGI in [6] is 2.86 µM; in test [10], 4.55 µM; in [1], 1.73 µM.
Consider `O=C1C2=C(c3ccccc31)C(c1ccccc1)NC(=S)N2` (stereo not drawn), for which the TGI in [5] was greater than 100 µM; in test [6], greater than 100 µM; in [7], greater than 100 µM; in [8] it was greater than 100 µM; in test [1] it was greater than 100 µM; in [2] it was 67.4 µM. The TGI in [3], in test [9] and in test [4] was greater than 100 µM throughout.
On to `c1cnc2[nH]cc(-c3csc(-c4cn(CCCCN5CCOCC5)c5ccccc45)n3)c2c1`, for which the GI50 in [5] is 1.76 µM; in [6], 1.81 µM; in [7], 1.82 µM; in test [8], 1.64 µM; in [1] it was 1.79 µM; in test [2], 2.02 µM. Also, the GI50 in test [3] was 1.73 µM; in [9], 1.72 µM; in test [4], 1.81 µM. Moreover, the TGI in [5] was found to be 3.49 µM; in test [6] it was 3.3 µM; in test [7] it was 3.45 µM; in [8], 3.17 µM; in [1], 3.8 µM; in [2] it was 3.93 µM. Further, the TGI in test [3] amounted to 3.51 µM; in test [9], 3.34 µM; in [4], 3.51 µM.
As for `COc1cc(CNc2ccc(C(C)C)cc2)cc(OC)c1OC`, the TGI was 99.1 µM in [5]; 72.7 µM in [6]; 69.9 µM in [7]; 33.4 µM in test [8]; 33 µM in test [1]; 41.7 µM in [2]. The TGI is 34.9 µM in [9] and 31.2 µM in [4]. Further, the GI50 in test [8] is 16.3 µM.
